These results are taken from patent US20120251662A1, “ANTIMICROBIAL POWDERS FOR THE PREPARATION OF BAKERY PRODUCTS” (Caravan Ingredients Inc., priority 2011, published 2012).

For this experiment, the system named is mold. The experiment is described as follows: Mold growth on white bread loaves (Dough Formulation A) coated with antimicrobial powders, Example 1. The method, then: All of the ingredients except for the salt were added to a 20 qt Hobart mixer, and mixed with a spiral hook on the 1st speed setting (low) for two minutes. […] The salt was added, followed by mixing at the 2nd speed setting for an additional 3 minutes until full dough development. […] Next, a Gemini Straight Grain Moulder was used, according to the settings in Table 4 below, to sheet and mould the dough pieces. The shaped dough pieces were then evenly coated with 2 grams of various antimicrobial powders containing different antimicrobial agents, as described below, and then placed into 1-lb loaf pans. […] After baking, the loaves were removed from the oven and […]. The loaves were cooled on wire racks for 1 hour and then bagged in poly bags with twist ties. […] Each of the antimicrobial powders used above was prepared by adding the ingredients in the tables below to a 5 qt Hobart mixer and blending with a paddle attachment for 10 minutes.

Consider `CCC(=O)[O-].CCC(=O)[O-].[Ca+2]` [Calcium Propionate], for which the “Mold Inhibition” value is listed as “Slightly Effective”.

On to `O=C(O)/C=C/C(=O)O` [Fumaric Acid], for which the “Mold Inhibition” value is “Slightly Effective”. In the case of `C[C@@H]1C/C=C/C=C/C=C/C=C/[C@H](O[C@@H]2O[C@H](C)[C@@H](O)[C@H](N)[C@@H]2O)C[C@@H]2O[C@](O)(C[C@@H](O)C[C@H]3O[C@@H]3/C=C/C(=O)O1)C[C@H](O)[C@H]2C(=O)O` [Natamycin, reference compound], the “Mold Inhibition” value was “Effective”.

For `C/C=C/C=C/C(=O)[O-].[K+]` [Potassium Sorbate], the “Mold Inhibition” value is reported as “Effective”. As for `O=C([O-])c1ccccc1.[Na+]` [Sodium Benzoate], the “Mold Inhibition” value is reported as “Moderately Effective”. For the compound `CC(=O)O.CC(=O)[O-].[Na+]` [Sodium Diacetate], the “Mold Inhibition” value is “Moderately Effective”. The result for `CCC(=O)[O-].[Na+]` [Sodium Propionate] reads “Moderately Effective”; that for `C/C=C/C=C/C(=O)O` [Sorbic Acid], “Effective”; that for Polylysine, “Moderately Effective”.
